Here are results for 14 compounds from patent publication US8168651B2, “Protein kinase modulators” (Cylene Pharmaceuticals, Inc., priority 2008, dated 2012).

Read-outs that look alike come from different tables or passages of the source.

In one assay the test system is MV-4-11. The assay is described as follows: Cell proliferation modulatory activity, MV-4-11. The class given is cell-based. As to conditions: Homo sapiens, MV4-11.
The next assay deals with recombinant human CK2 (Homo sapiens (Human), UniProt P68400). The assay is described as follows: CK2 assay (cell-free, 33P-ATP filter plate). In kind it is biochemical. Conditions: cell-free; for inhibition at 0.5 µM: 500 nM compound, read-out: CK2: % inh 500 nM.
Sequence of recombinant human CK2 (P68400 whole entry): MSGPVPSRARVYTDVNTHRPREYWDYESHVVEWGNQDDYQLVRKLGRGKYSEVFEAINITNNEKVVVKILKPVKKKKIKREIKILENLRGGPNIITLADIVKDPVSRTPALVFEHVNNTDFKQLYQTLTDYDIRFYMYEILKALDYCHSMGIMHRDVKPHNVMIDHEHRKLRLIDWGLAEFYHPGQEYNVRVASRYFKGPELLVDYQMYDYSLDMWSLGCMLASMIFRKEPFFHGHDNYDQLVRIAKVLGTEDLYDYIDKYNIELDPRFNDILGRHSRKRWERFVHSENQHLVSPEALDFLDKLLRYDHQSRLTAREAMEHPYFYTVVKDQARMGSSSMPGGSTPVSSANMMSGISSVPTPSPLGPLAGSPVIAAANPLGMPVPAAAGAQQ
Sequence of recombinant human CK2 (P67870 whole entry partner): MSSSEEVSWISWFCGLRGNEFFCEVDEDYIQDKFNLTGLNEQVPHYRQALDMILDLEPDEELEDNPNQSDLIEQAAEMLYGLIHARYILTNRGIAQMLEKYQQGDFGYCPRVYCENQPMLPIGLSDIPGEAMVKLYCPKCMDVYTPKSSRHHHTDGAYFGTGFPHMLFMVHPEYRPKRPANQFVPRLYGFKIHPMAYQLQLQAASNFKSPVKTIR
The next assay concerns K-562. As to the kind of experiment: Cell proliferation modulatory activity, K-562. The class given is cell-based. Conditions: Homo sapiens, K562.
Assay [1] relates to HCT-116 human colorectal carcinoma cells. As to the kind of experiment: Cell-proliferation assay using Alamar Blue dye.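 Also: cells exposed to compound for about 4 days, then Alamar Blue added and dye fluorescence read after about 4 h, compared with medium-only control wells.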 In kind it is cell-based. Conditions: Homo sapiens.
For another assay, the target named is recombinant human PIM1 (Homo sapiens (Human), UniProt P11309). The assay is described as follows: PIM-1 kinase activity in cell-free in vitro assay. The class given is biochemical. As to conditions: cell-free; for inhibition at 0.5 µM: 500 nM compound, read-out: PIM-1: % inh 500 nM.
Sequence of recombinant human PIM1 (P11309 whole entry): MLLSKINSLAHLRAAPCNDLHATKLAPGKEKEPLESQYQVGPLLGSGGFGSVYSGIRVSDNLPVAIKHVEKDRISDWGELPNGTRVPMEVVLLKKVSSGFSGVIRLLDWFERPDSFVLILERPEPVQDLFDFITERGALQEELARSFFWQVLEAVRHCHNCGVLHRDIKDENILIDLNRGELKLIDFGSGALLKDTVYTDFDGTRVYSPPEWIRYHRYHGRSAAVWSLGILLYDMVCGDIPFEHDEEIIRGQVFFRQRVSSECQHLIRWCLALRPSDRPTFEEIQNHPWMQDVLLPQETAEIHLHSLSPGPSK
A further assay addresses Flt3 (Homo sapiens (Human), UniProt P36888). As to the kind of experiment: FLT-3 kinase activity in cell free in vitro assay. In kind it is biochemical. Conditions: cell-free; read-out: FLT-3.
Where [2] appears, read: HCT-116, HCT-116, second column, read-out: HCT-116 (uM), cell proliferation modulatory activity.
Setting [3] is: HCT-116, read-out: HCT-116 (uM), cell proliferation modulatory activity, HCT-116, second column.
[4] abbreviates: HCT-116, read-out: HCT-116 (uM), cell proliferation modulatory activity, HCT-116, first column.

Sequence of Flt3 (P36888 27-993): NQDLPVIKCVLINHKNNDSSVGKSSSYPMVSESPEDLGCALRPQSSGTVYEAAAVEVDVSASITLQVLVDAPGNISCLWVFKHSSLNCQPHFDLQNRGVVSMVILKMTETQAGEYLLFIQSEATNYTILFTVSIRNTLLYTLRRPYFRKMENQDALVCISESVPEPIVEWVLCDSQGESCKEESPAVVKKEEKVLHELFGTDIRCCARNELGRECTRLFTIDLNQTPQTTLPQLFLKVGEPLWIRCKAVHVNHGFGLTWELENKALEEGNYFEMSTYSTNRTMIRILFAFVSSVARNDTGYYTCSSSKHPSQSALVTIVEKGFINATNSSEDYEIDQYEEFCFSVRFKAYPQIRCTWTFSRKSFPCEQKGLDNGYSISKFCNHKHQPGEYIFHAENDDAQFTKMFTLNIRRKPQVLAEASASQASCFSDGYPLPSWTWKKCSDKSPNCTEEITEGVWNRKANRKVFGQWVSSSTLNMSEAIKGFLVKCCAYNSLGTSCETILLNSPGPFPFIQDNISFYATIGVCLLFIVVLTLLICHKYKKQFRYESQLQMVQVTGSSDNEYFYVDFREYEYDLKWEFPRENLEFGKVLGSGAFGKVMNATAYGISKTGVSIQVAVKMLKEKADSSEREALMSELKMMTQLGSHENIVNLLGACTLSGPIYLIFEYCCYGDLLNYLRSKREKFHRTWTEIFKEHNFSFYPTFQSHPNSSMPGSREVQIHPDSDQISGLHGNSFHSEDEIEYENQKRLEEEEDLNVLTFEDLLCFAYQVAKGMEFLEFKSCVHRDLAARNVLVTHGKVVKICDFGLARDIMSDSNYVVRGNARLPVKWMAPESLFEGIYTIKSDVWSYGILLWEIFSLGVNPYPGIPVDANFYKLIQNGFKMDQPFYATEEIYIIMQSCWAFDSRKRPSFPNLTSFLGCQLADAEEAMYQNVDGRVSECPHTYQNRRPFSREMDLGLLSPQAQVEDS

Regarding `CN(C)CCNC(=O)Cc1cccc(Nc2nc3cc(C(=O)O)ccc3c3sccc23)c1`, the IC50 in the assay on MV-4-11 is greater than 10 µM; with K-562 it was greater than 10 µM; in assay [1] (setting [2]), greater than 10 µM; at recombinant human PIM1 it was 283 nM. In addition, the inhibition at 0.5 µM amounted to 53.3% on recombinant human CK2 and 69.2% at recombinant human PIM1.

`N#Cc1cccc(Nc2nc3cc(C(=O)O)ccc3c3cnccc23)c1`: the IC50 at Flt3 was 12 nM; with MV-4-11, greater than 10 µM; with K-562 it was 9.15 µM; on recombinant human PIM1, 58 nM. For the same compound, the inhibition at 0.5 µM on recombinant human PIM1 is 92.4%.

Consider `COC(=O)c1ccc2c(c1)nc(Nc1cccc(Cl)c1)c1ccncc12`, for which the IC50 at Flt3 was greater than 400 nM; in the assay on MV-4-11, 0.161 µM; in the assay on K-562, 0.217 µM. The figures for the inhibition at 0.5 µM on recombinant human CK2 and at recombinant human PIM1 were 13.4% and 7.83%, respectively.

Turning to `Clc1cccc(Nc2nc3cc(-c4nnn[nH]4)ccc3c3cnccc23)c1`, the IC50 at Flt3 was found to be 305 nM; with MV-4-11 it was 0.032 µM; in the assay with K-562 it was 8.2 µM; on recombinant human PIM1, 863 nM. Also, at recombinant human PIM1, the inhibition at 0.5 µM came out at 48.6%.

With `O=C(O)c1ccc2c(c1)nc(Nc1cc(F)cc(F)c1)c1ccncc12`, the IC50 was greater than 10 µM with MV-4-11, 3.26 µM with K-562, 4.33 µM in assay [1] (setting [3]) and 111 nM at recombinant human PIM1. Besides, the inhibition at 0.5 µM at recombinant human PIM1 was determined as 92.4%.

For the compound `CN(C)CCNc1nc2cc(-c3nnn[nH]3)ccc2c2sccc12`, the IC50 was greater than 10 µM with MV-4-11; greater than 10 µM in the assay on K-562; 10 µM in assay [1] (setting [4]); greater than 10 µM in assay [1] (setting [3]); 47 nM on recombinant human PIM1. Also, the inhibition at 0.5 µM at recombinant human PIM1 is 92.9%.

As to `c1ccc(Nc2nc3cc(-c4nnn[nH]4)ccc3c3sccc23)cc1`, the IC50 with MV-4-11 was 1.09 µM; in the assay on K-562, greater than 10 µM; in assay [1] (setting [4]) it was 10 µM; on recombinant human PIM1, 262 nM. The inhibition at 0.5 µM on recombinant human PIM1 amounted to 70.9%.

As to `N#Cc1cc(F)cc(Nc2nc3cc(C(=O)O)ccc3c3sccc23)c1`, the IC50 in the assay on MV-4-11 was 1.46 µM; in the assay with K-562, greater than 10 µM; in assay [1] (setting [3]), greater than 10 µM; at recombinant human PIM1, 252 nM. The inhibition at 0.5 µM at recombinant human PIM1 was 87%.

With `Fc1cc(F)cc(Nc2nc3cc(-c4nnn[nH]4)ccc3c3sccc23)c1`, the IC50 was 2.2 µM in the assay on MV-4-11, greater than 10 µM in the assay on K-562, greater than 10 µM in assay [1] (setting [3]) and 414 nM on recombinant human PIM1. In addition, the inhibition at 0.5 µM at recombinant human PIM1 came to 86.9%.

For `CNS(=O)(=O)c1cccc(Nc2nc3cc(C(=O)O)ccc3c3sccc23)c1`, the IC50 is greater than 10 µM with MV-4-11, greater than 10 µM with K-562, greater than 10 µM in assay [1] (setting [3]) and 159 nM on recombinant human PIM1. For the same compound, the inhibition at 0.5 µM at recombinant human PIM1 was found to be 82.8%.

With `CN(c1ccccc1)c1nc2cc(C(=O)O)ccc2c2sccc12`, the IC50 is greater than 10 µM in the assay on MV-4-11, greater than 10 µM in the assay with K-562, 10 µM in assay [1] (setting [4]) and 404 nM at recombinant human PIM1. Also, the inhibition at 0.5 µM on recombinant human PIM1 stood at 61.4%.

On to `FC(F)(F)c1cccc(Nc2nc3cc(-c4nnn[nH]4)ccc3c3sccc23)c1`, for which the IC50 at Flt3 was greater than 400 nM; in the assay with MV-4-11 it was 0.093 µM; on recombinant human CK2 (15 um ATP, read-out: CK2 (15 um ATP) IC50) it was 458 nM; at recombinant human CK2 (20 um ATP, read-out: CK2 (20 um ATP) IC50), 406 nM; with K-562 it was greater than 10 µM; in assay [1] (setting [2]), greater than 10 µM. Moreover, the IC50 on recombinant human PIM1 was 205 nM. The inhibition at 0.5 µM at recombinant human PIM1 was determined as 59%.

`O=C(O)c1ccc2c(c1)nc(Nc1cc(F)cc(Cl)c1)c1ccsc12`: the IC50 in the assay on MV-4-11 was 0.745 µM; in the assay with K-562, greater than 10 µM; in assay [1] (setting [3]), greater than 10 µM; at recombinant human PIM1, 299 nM. At recombinant human PIM1, the inhibition at 0.5 µM amounted to 90%.

Take `Fc1cccc(Nc2nc3cc(-c4nnn[nH]4)ccc3c3sccc23)c1`: the IC50 at Flt3 was greater than 400 nM; in the assay on MV-4-11, 0.525 µM; in the assay on K-562 it was greater than 10 µM; at recombinant human PIM1, 138 nM. Besides, the inhibition at 0.5 µM on recombinant human PIM1 was 76.6%.
